According to US5063245A, “Corticotropin-releasing factor antagonism compounds” (Nova Pharmaceutical Corporation, priority 1990, dated 1991):
Entries after “also recorded” stand apart in the source; their conditions may differ. Like-named read-outs stand apart in the source and are kept apart here. Ends that are not written are not given here.

Legend:
[1] = target: CRF-stimulated adenylate cyclase; assay: Inhibition of CRF-stimulated adenylate cyclase activity (rat frontal cortex); assay type: biochemical; conditions: 1 μM oCRF, 37° C., 10 minutes
Excerpt: CRF antagonist activity is established by the ability of the compounds to antagonize CRF-stimulated adenylate cyclase activity, it having been established that CRF receptors are coupled to a guanine nucleotide regulatory protein that activates adenylate cyclase [G. Aguilera et al., Neuroendocrinology, 43, 79 (1986); G. Battaglia et al., Synapse, 1, 572 (1987)].
(§1) Male Sprague-Dawley rats (175-250 g) were sacrificed by decapitation, the frontal cortex was dissected and homogenized in 30 volumes (w/v) of ice-cold buffer (50 mM Tris HCl, 10 mM MgCl2, 2 mM EGTA; pH 7.2 at 22° C.). The homogenate was centrifuged at 40,000×g for 3 minutes (4° C.), the supernatant discarded and the pellet resuspended in original volume of fresh homogenization buffer. Following centrifugation at 40,000×g for 30 minutes, the resulting pellet was suspended to a tissue concentration of 20 mg original wet weight of tissue per mL (approximately 40-60 μg protein/mL). For determination of basal adenylate cyclase activity, assays are carried out at 37° C. for 10 minutes in 250 μL of buffer containing 100 mM Tris HCl, 10 mM MgCl2, 0.4 mM EGTA, 0.1% BSA, 1 mM isobutylmethylxanthine (IBMX), 3 units/tube phosphocreatine kinase, 5 mM creatine phosphate, 100 μM guanosine. Maximal stimulation of adenylate cyclase activity was accomplished by the addition of 10^-6 M oCRF. Stimulated enzyme activity generally represented a 75-95% increase over basal levels. Reactions were initiated by the addition of tissue and terminated by the addition of 150 μL of 50 mM Tris HCl, 45 mM ATP, 2% sodium dodecyl sulfate (SDS), and [^3 H] cAMP (approximately 40,000 dpm). The [^3 H]cAMP was added to each assay tube to monitor recovery of cAMP during subsequent chromatography steps. Separation of [^32 P]cAMP from [^32 P]ATP was accomplished by sequential elution over Dowex and alumina columns. The eluate (4 mL) was collected in 20 mL scintillation vials to which 8 mL of Beckman EP fluor was added. Vials were shaken for 30 minutes prior to measuring ^3 H and ^32 P by scintillation counting. All data were fed directly from the liquid scintillation counter via RS232 port to a VAX 8300 computer. Individual data points were expressed as pmoles of cAMP formed/10 minutes/mg protein. Protein content of tissue samples was measured using the BioRad method with bovine serum albumin serving as the standard.
Determination of antagonist activity was accomplished by addition of at least six concentrations of the compound (10^-8 -10^-4 M), evaluated in triplicate, in the presence of a maximally stimulating concentration of oCRF (1 μM). IC50 values were derived from a log-logit transformation of the data on a Vax 8300.

CRF receptor = target: T1, CRF receptor (Rattus norvegicus, UniProt P35353); assay: In vitro receptor binding: inhibition of specific binding of [125I]tyrosine-oCRF to rat cerebral cortex membranes; conditions: [125I]Tyr-oCRF 50-100 pM, 2 hours at room temperature
T1 construct: the cerebral cortex was removed and the tissue homogenized; from tissue; host or cells: cerebral cortex membranes of male Sprague-Dawley rats
T1 sequence (P35353 24-415): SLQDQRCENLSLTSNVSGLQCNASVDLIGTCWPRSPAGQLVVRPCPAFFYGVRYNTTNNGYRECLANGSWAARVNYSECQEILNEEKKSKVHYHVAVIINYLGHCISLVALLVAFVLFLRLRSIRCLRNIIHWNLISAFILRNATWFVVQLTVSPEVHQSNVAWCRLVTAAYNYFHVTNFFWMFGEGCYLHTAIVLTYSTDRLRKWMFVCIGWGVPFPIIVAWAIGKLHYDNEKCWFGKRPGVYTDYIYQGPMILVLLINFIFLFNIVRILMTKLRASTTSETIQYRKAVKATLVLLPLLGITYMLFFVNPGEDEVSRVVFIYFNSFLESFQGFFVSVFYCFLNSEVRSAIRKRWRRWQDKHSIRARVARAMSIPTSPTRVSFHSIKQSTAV
Experimental: The potency of the compounds of the invention as inhibitors of the specific binding of radiolabeled CRF to rat cerebral cortex membranes was examined using a standard in vitro radioligand binding technique. […] The homogenate was centrifuged at 48,000×g for 10 minutes at 4° C. The supernatant was removed, the tissue pellet suspended in the original volume of fresh homogenization buffer using a Polytron and centrifuged as before. […] Incubation buffer consists of 50 mM Hepes (pH 7.0 at 22° C.) containing 10 mM MgCl2, 2 mM EGTA, 0.1 mM bacitracin, 100 KIU (kallikrein inhibitor units)/mL aprotinin and 0.1% BSA (bovine serum albumin). […] Nonspecific binding was determined in the presence of 1 μM oCRF. The binding reaction was allowed to proceed for 2 hours at room temperature. Bound radioligand was separated from the incubation medium by centrifugation in a Beckman microfuge for 5 minutes at 12,000×g. The supernatant was aspirated and the resulting pellet was washed with 1 mL of cold phosphate buffered saline (pH 7.2) containing 0.01% of Triton X-100.
Tyr-oCRF to rat cortical membranes was determined on at least three separate occasions using 8-10 concentrations of each compound and utilizing triplicate incubations. The IC50 and apparent Hill coefficient for each compound were calculated using a computer-assisted log-logit analysis.

adenylate cyclase = assay: Stimulation of adenylate cyclase activity by oCRF (rat frontal cortex); assay type: biochemical; conditions: 10^-6 M oCRF, 37° C., 10 minutes
Experimental: as §1, with “Reactions were initiated by the addition of tissue and terminated by the addition of 150 μL of 50 mM Tris HCl, 45 mM ATP, 2% sodium dodecyl sulfate (SDS), and [^3 H] cAMP (approximately 40,000 dpm). The [^3 H]cAMP was added to each assay tube to monitor recovery of cAMP during subsequent chromatography steps. Separation of [^32 P]cAMP from [^32 P]ATP was accomplished by sequential elution over Dowex and alumina columns. The eluate (4 mL) was collected in 20 mL scintillation vials to which 8 mL of Beckman EP fluor was added. Vials were shaken for 30 minutes prior to measuring ^3 H and ^32 P by scintillation counting. All data were fed directly from the liquid scintillation counter via RS232 port to a VAX 8300 computer.” left out

[2] = intracerebroventricular (icv); cited from earlier work
[3] = Table I, Formula I, read-out: Inhibition of CRF Binding, Rat Cerebral Cortex Membrane, IC50
[4] = Inhibition of CRF Binding, Rat Cerebral Cortex Membrane, IC50, Table I, Formula I

Row | IC50 ([1]; Table I, Formula I) [µM] | IC50 (CRF receptor; [3]) [µM] | Compound | other results
1 | 6.9 | 7.4 | CCn1c(C)c(SC#N)c(=O)n1-c1cccc(Cl)c1 [Formula I: 3-ClPh, C2 H5, CH3, SCN, 2-ethyl-3-methyl-5-oxo-1-(3-chlorophenyl)-3-pyrazolin-4-yl thiocyanate] | 
2 | 11.4 | 17 | CCn1c(C)c(SC#N)c(=O)n1-c1ccc(S(C)(=O)=O)cc1 [Formula I: 4-CH3 SO2 Ph, C2 H5, CH3, SCN, 2-ethyl-3-methyl-5-oxo-1-(4-methylsulfonylphenyl)-3-pyrazolin-4-yl thiocyanate] | 
3 |  |  | CCn1c(C)c(SSc2c(C)n(CC)n(-c3ccc(Cl)c(Cl)c3)c2=O)c(=O)n1-c1ccc(Cl)c(Cl)c1 [Formula II: 3,4-Cl2 Ph, C2 H5, CH3, 2-ethyl-3-methyl-5-oxo-1-(3,4-dichlorophenyl)-3-pyrazolin-4-yl disulfide] | IC50 ([1]; Table II, Formula II (disulfides)): 4.3 µM; IC50 (CRF receptor; Table II, Formula II (disulfides), read-out: Inhibition of CRF Binding, Rat Cerebral Cortex Membrane, IC50): 2.9 µM
4 | 6.1 | 16.1 | Cc1c(SC#N)c(=O)n(-c2ccccc2)n1-c1ccccc1 [Formula I: Ph, Ph, CH3, SCN, 3-methyl-5-oxo-1,2-phenyl-3-pyrazolin-4-yl thiocyanate] | 
5 | 6.5 | 12.2 | CCn1c(C)c(SC#N)c(=O)n1-c1ccccc1 [Formula I: Ph, C2 H5, CH3, SCN, 2-ethyl-3-methyl-5-oxo-1-phenyl-3-pyrazolin-4-yl thiocyanate] | 
6 | 2.9 | 13.7 | CC(=O)Sc1c(C)n(C)n(-c2ccccc2)c1=O [Formula I: Ph, CH3, CH3, SAc, 2,3-dimethyl-5-oxo-1-phenyl-3-pyrazolin-4-yl thioacetate] | 
7 | 11.9 | 9.3 | CCc1c(SC#N)c(=O)n(-c2ccc(OC)cc2)n1C [Formula I: 4-OMePh, CH3, C2 H5, SCN] | 
8 | 45 | 67 | CCc1c(SC#N)c(=O)n(CC)n1CC [Formula I: C2 H5, C2 H5, C2 H5, SCN, 1,2,3-triethyl-5-oxo-3-pyrazolin-4-yl thiocyanate] | 
9 |  |  | oCRF: ovine CRF, a 41 residue straight chain peptide | Stimulated enzyme activity, increase over basal levels (adenylate cyclase): 75-95%
10 |  |  | CRF: corticotropin releasing factor (SEEPPISLDLTFHLLREVLEMARAEQLAQQAHSNRKLMEII; ends and bridges not checked; UniProt P06850 154-194, looked up) | effect of icv injection of CRF (in words) [2]: elicits behavioral activation; also recorded: produces a long-lasting activation of the electroencephalogram; also recorded: stimulates the sympathoadrenomedullary pathway; also recorded: increases heart rate and blood pressure; also recorded: increases oxygen consumption; also recorded: alters gastrointestinal activity; also recorded: suppresses food consumption; also recorded: compromises immune function
11 | 9.1 | 8.6 | Cc1ccc(-n2c(=O)c(SC#N)c(C)n2C)cc1 [Formula I: 4-CH3 Ph, CH3, CH3, SCN, 2,3-dimethyl-5-oxo-1-(4-methylphenyl)-3-pyrazolin-4-yl thiocyanate] | 

Row | Compound | IC50 ([1]; Table I, Formula I) [µM] | IC50 (CRF receptor; [3]) [µM] | other results
12 | CCCn1c(C)c(SC#N)c(=O)n1-c1ccccc1 [Formula I: Ph, (CH2)2 CH3, CH3, SCN, 3-methyl-5-oxo-1-phenyl-2-propyl-3-pyrazolin-4-yl thiocyanate] | 16.9 |  | IC50 (CRF receptor; [4]): 32 µM
13 | CCn1c(C)c(SC#N)c(=O)n1-c1ccc(Cl)c(Cl)c1 [Formula I: 3,4 Cl2 Ph, C2 H5, CH3, SCN, 2-ethyl-3-methyl-5-oxo-1-(3,4-dichlorophenyl)-3-pyrazolin-4-yl thiocyanate] | 1.4 |  | IC50 (CRF receptor; [4]): 4.9 µM
